Where two headings read alike, the source gives them in different places.
Assays:
Assay type in all cases: cell-based
Corynebacterium xerosis [1] = assay: MIC in the agar incorporation test
Protocol: (§1) Determination of Minimum Inhibitory Concentration (MIC Values) in the Agar Incorporation Test
(§2) 1% stock solutions of the substances are prepared in an appropriate solvent and diluted in serial dilutions 1:2 (to yield end concentrations in the agar of 500-1.9 ppm). 0.3 ml of each dilution step is mixed with 15 ml of nutrient medium while the latter is still liquid. After the nutrient medium has solidified, 10 μl of each test strain in 0.85% NaCl solution are spotted onto the agar medium.
(§3) The plates are incubated at 37° C. for 24 hours and then the highest dilution (lowest concentration) of the test substance at which growth is no longer observable is determined.
(§4) Test Organisms: Staphylococcus aureus ATCC 6583 Staphylococcus epidermidis ATCC 12228 Corynebacterium xerosis ATCC 373 Propionibacterium acnes ATCC Escherichia coli ATCC 10536 Salmonella choleraesuis ATCC Klebsiella pneumoniae ATCC *Candida albicans ATCC 10231
(§5) *Aspergillus niger ATCC 6275

Staphylococcus epidermis = assay: MIC in the agar incorporation test
Protocol: as §1, §2, §3, §4, §5

Propionibacterium acnes = assay: MIC in the agar incorporation test; settings: Cutibacterium acnes, read-out: MIC Propionibacterium acnes
Protocol: as §1, §2, §3, §4, §5

[2] = tested on: Corynebacterium minutissimum; assay: MIC in the agar incorporation test; settings: read-out: MIC Corynebacterium minutissimum
Actinomyces viscosus [3] = assay: Microbicidal activity (suspension test, plate count); settings: ATCC 43146
Protocol: (§6) Determination of Microbicidal Activity
(§7) 1 g stock solution with an appropriate concentration of test products are mixed with 8 g water and then inoculated with 1 ml of the selected test organisms. After a given contact period, aliquots are taken, inactivated and diluted. The number of surviving bacteria per ml incubation assay is determined by plate count. Proper inactivation by the inactivating medium used was checked each time.
(§8) Diluent: tryptone water for microorganisms
(§9) • (0.1% tryptone (Oxoid), 0.85% NaCl, deion. water) • deion. water for test substances • inactivating medium for detection of surviving microorganisms Growth medium: casein soybean peptone agar Inactivating Medium: tryptic soy broth special • (10% w/w Tween 80, 3% w/w Lecithine, 0.1% w/w L-Histidine, • 0.055% w/w Sodium thiosulfate) Test organisms: Staphylococcus aureus ATCC 6538 • Escherichia coli ATCC 10536 • Actinomyces viscosus ATCC 43146 • Corynebacterium xerosis ATCC 373 Test concentration: 120 ppm and 1200 ppm Contact times: 5 and 30 minutes at 22° C.
(§10) Incubation time: 24 h at 37° C.

Corynebacterium xerosis [4] = assay: as above; settings: ATCC 373
Protocol: as §6, §7, §8, §9, §10

Escherichia coli [5] = assay: as above; settings: ATCC 10536
Protocol: as §6, §7, §8, §9, §10

Staphylococcus aureus [6] = assay: as above; settings: ATCC 6538
Protocol: as §6, §7, §8, §9, §10

Escherichia coli [7] = assay: MIC in the agar incorporation test
Protocol: as §1, §2, §3, §4, §5

Salmonella choleraesuis = assay: MIC in the agar incorporation test; settings: Salmonella enterica, Mueller Hinton agar, 24 hours at 37° C.
Protocol: as §1, §2, §3, §4, §5

Staphylococcus aureus [8] = assay: MIC in the agar incorporation test
Protocol: as §1, §2, §3, §4, §5

Actinomyces viscosus [9] = assay: MIC against oral microorganisms via broth dilution
Protocol: (§11) Determination of the Minimum Inhibition Concentration (MIC Value) Against Different Oral Microorganisms Via Broth Dilution
(§12) 1500 ppm stock solutions of the substances are prepared in ethanol and pipetted into the growth medium to yield concentrations between 0.94 and 15 ppm. Bacteria are taken from blood agar plates with cotton swabs and adjusted in the appropriate growth medium to yield an optical density corresponding to McFarland 0.5. This suspension is directly used in the case of F. nucleatum and P. nigrescens. For the other strains, the suspension is diluted 1:20. 0.1 ml of these bacterial suspensions are added to 2 ml of the substance solutions. After the incubation time, the tubes are assessed for growth (turbidity).
(§13) Test Organisms: *Actinobacillus actinomycetemcomitans ATCC 43718 *Stretococcus gordonii ATCC 10558 *Streptococcus mutans ATCC 33402 Actinomyces viscosus ATCC 43146 Fusobacterium nucleatum subsp. polymorphum ATCC 10953 Porphyromonas gingivalis ATCC 33277
(§14) Prevotella nigrescens ATCC 33563

Prevotella nigrescens = assay: MIC against oral microorganisms via broth dilution
Protocol: as §11, §12, §13, §14

Klebsiella pneumoniae = assay: MIC in the agar incorporation test; settings: Mueller Hinton agar, 24 hours at 37° C.
Protocol: as §1, §2, §3, §4, §5

Streptococcus gordonii = assay: MIC against oral microorganisms via broth dilution
Protocol: as §11, §12, §13, §14

Streptococcus mutans = assay: MIC against oral microorganisms via broth dilution
Protocol: as §11, §12, §13, §14

[10] = tested on: Fusobacterium nucleatum subsp. polymorphum; assay: MIC against oral microorganisms via broth dilution; settings: ATCC10953, broth dilution 0.94-15 ppm, 7-10 days at 37° C. anaerobically, ATCC 10953, read-out: MIC Fusobacterium nucleatum subsp. polymorphum
Protocol: as §11, §12, §13, §14

Porphyromnas gingivalis = assay: MIC against oral microorganisms via broth dilution; settings: read-out: MIC Porphyromnas gingivalis
Protocol: as §11, §12, §13, §14

[11] = ATCC373, 24 h, read-out: MIC Corynebacterium xerosis
[12] = ATCC12228, 24 h, read-out: MIC Staphylococcus epidermis
[13] = 1200 ppm, 5 min contact at 22° C.
[14] = 1200 ppm, 30 min contact at 22° C.
[15] = ATCC373, agar incorporation, Mueller Hinton agar, 24 hours at 37° C., ATCC 373, read-out: MIC Corynebacterium xerosis
[16] = ATCC10536, agar incorporation, Mueller Hinton agar, 24 hours at 37° C., ATCC 10536, read-out: MIC Escherichia coli
[17] = ATCC12228, agar incorporation, Mueller Hinton agar, 24 hours at 37° C., ATCC 12228, read-out: MIC Staphylococcus epidermis
[18] = agar incorporation, Mueller Hinton agar, 24 hours at 37° C.
[19] = ATCC6583, agar incorporation, Mueller Hinton agar, 24 hours at 37° C., ATCC 6583, read-out: MIC Staphylococcus aureus
[20] = ATCC43146, broth dilution 0.94-15 ppm, 7-10 days at 37° C. anaerobically, ATCC 43146, read-out: MIC Actinomyces viscosus
[21] = ATCC33563, broth dilution 0.94-15 ppm, Columbia bouillon, 7-10 days at 37° C. anaerobically, ATCC 33563, read-out: MIC Prevotella nigrescens

| MIC (Corynebacterium xerosis [1]; [15]) [µg/mL] | MIC (Escherichia coli [7]; [16]) [µg/mL] | MIC (Staphylococcus epidermis; [17]) [µg/mL] | MIC (Propionibacterium acnes; [18]) [µg/mL] | MIC (Staphylococcus aureus [8]; [19]) [µg/mL] | MIC (Actinomyces viscosus [9]; [20]) [µg/mL] | MIC (Prevotella nigrescens; [21]) [µg/mL] | SMILES | MIC (Corynebacterium xerosis [1]; [11]) [µg/mL] | MIC (Staphylococcus epidermis; [12]) [µg/mL] | MIC (Propionibacterium acnes; 24 h) [µg/mL] | MIC ([2]; 24 h) [µg/mL] | Microbicidal activity Actinomyces viscosus 120 ppm/5 min (Actinomyces viscosus [3]; 5 min contact at 22° C.) [log reductions] | Microbicidal activity Actinomyces viscosus 120 ppm/30 min (Actinomyces viscosus [3]; 30 min contact at 22° C.) [log reductions] | Microbicidal activity Corynebacterium xerosis 120 ppm/5 min (Corynebacterium xerosis [4]; 5 min contact at 22° C.) [log reductions] | Microbicidal activity Corynebacterium xerosis 120 ppm/30 min (Corynebacterium xerosis [4]; 30 min contact at 22° C.) [log reductions] | Microbicidal activity Escherichia coli 120 ppm/5 min (Escherichia coli [5]; 5 min contact at 22° C.) [log reduction] | Microbicidal activity Escherichia coli 120 ppm/30 min (Escherichia coli [5]; 30 min contact at 22° C.) [log reduction] | Microbicidal activity Staphylococcus aureus 120 ppm/5 min (Staphylococcus aureus [6]; 5 min contact at 22° C.) [log reduction] | Microbicidal activity Staphylococcus aureus 120 ppm/30 min (Staphylococcus aureus [6]; 30 min contact at 22° C.) [log reduction] | MIC (Salmonella choleraesuis) [µg/mL] | other results |
| --- | --- | --- | --- | --- | --- | --- | --- | --- | --- | --- | --- | --- | --- | --- | --- | --- | --- | --- | --- | --- | --- |
|  |  |  |  |  |  |  | C[n+]1ccccc1COc1ccccc1/C=C/c1ccc(-c2ccc(/C=C/c3ccccc3OCc3cccc[n+]3C)cc2)cc1 [formula 32] | 100 | 50 | 100 | 200 |  |  |  |  |  |  |  |  |  |  |
| 15.6 | 125 | 62.5 | 62.5 | 62.5 | 15 | 15 | CCN(CC)CCOc1cccc(/C=C/c2ccc(/C=C/c3cccc(OCCN(CC)CC)c3OCCN(CC)CC)cc2)c1OCCN(CC)CC [formula 25] |  |  |  |  | 2.9 | 2.1 | 5 | 5 | 5 | 5 | 1 | 1 | 125 | Microbicidal activity Actinomyces viscosus 1200 ppm/5 min (Actinomyces viscosus [3]; [13]): 4 log reductions; Microbicidal activity Actinomyces viscosus 1200 ppm/30 min (Actinomyces viscosus [3]; [14]): 4 log reductions; Microbicidal activity Corynebacterium xerosis 1200 ppm/5 min (Corynebacterium xerosis [4]; [13]): 5 log reductions; Microbicidal activity Corynebacterium xerosis 1200 ppm/30 min (Corynebacterium xerosis [4]; [14]): 5 log reductions; Microbicidal activity Escherichia coli 1200 ppm/5 min (Escherichia coli [5]; [13]): 5 log reduction; Microbicidal activity Escherichia coli 1200 ppm/30 min (Escherichia coli [5]; [14]): 5 log reduction; Microbicidal activity Staphylococcus aureus 1200 ppm/5 min (Staphylococcus aureus [6]; [13]): 2.9 log reduction; Microbicidal activity Staphylococcus aureus 1200 ppm/30 min (Staphylococcus aureus [6]; [14]): 2.8 log reduction; MIC [2, 18]: 15.6 µg/mL |
| 7.8 | 125 | 15.6 | 3.9 | 7.8 | 3.75 | 7.5 | CN(C)CCSc1ccccc1/C=C/c1ccc(/C=C/c2ccccc2SCCN(C)C)cc1 [formula 23] |  |  |  |  | 2 | 4 | 5 | 5 | 3.3 | 5 | 2 | 4 | 125 | MIC (Klebsiella pneumoniae): 31.3 µg/mL; MIC (Streptococcus gordonii; ATCC10558, broth dilution 0.94-15 ppm, 24 h aerobically with 10% CO2, ATCC 10558, read-out: MIC Streptococcus gordonii): 7.5 µg/mL; MIC (Streptococcus mutans; ATCC33402, broth dilution 0.94-15 ppm, 24 h aerobically with 10% CO2, ATCC 33402, read-out: MIC Streptococcus mutans): 7.5 µg/mL; MIC [10]: 7.5 µg/mL; MIC (Porphyromnas gingivalis; broth dilution 0.94-15 ppm, Columbia bouillon, 7-10 days at 37° C. anaerobically, ATCC 33277): 3.75 µg/mL; MIC [2, 18]: 3.9 µg/mL |
|  |  |  |  |  |  |  | C[n+]1ccc(Oc2ccccc2/C=C/c2ccc(-c3ccc(/C=C/c4ccccc4Oc4cc[n+](C)cc4)cc3)cc2)cc1 [formula 34] | 3.1 | 3.1 | 1.6 | 3.1 |  |  |  |  |  |  |  |  |  | MIC (Escherichia coli [7]; ATCC10536, 24 h, read-out: MIC Escherichia coli): 50 µg/mL; MIC (Staphylococcus aureus [8]; ATCC6583, 24 h, read-out: MIC Staphylococcus aureus): 3.1 µg/mL; MIC (Streptococcus gordonii; ATCC10558, 24 h, read-out: MIC Streptococcus gordonii): 15 µg/mL; MIC (Actinomyces viscosus [9]; ATCC43146, read-out: MIC Actinomyces viscosus): 1.9 µg/mL; MIC (Streptococcus mutans; ATCC33402, 24 h, read-out: MIC Streptococcus mutans): 1.9 µg/mL; MIC (Prevotella nigrescens; ATCC33563, read-out: MIC Prevotella nigrescens): 3.8 µg/mL; MIC (Porphyromnas gingivalis): 7.5 µg/mL |

Source: patent US20070258912A1, “Use of Fluorescent Whitening Agents as Antimicrobials” (priority 2004, published 2007)
